# Test results from patent publication US6797699B1, “Neuroprotective agents” (University of Southampton, priority 1997, dated 2004).
# System: NMDA receptor-mediated neurotoxicity in organotypic hippocampal slice cultures
# Assay: NMDA receptor-mediated neurotoxicity in organotypic hippocampal slice cultures
# Assay type: cell-based, Wistar rat
# Settings: 300 μM throughout the experiment, PI at 24 hours
# Procedure: Organotypic hippocampal slice cultures were prepared and maintained as described above. NMDA was prepared as a 50 mM stock solution in distilled water, and diluted as required in SF medium. Neurotoxicity was induced by placing cultures in SF medium containing either 10 μM or […] NMDA for 180 minutes. After this time, cultures were replated in SF-medium and maintained for 24 hours in the incubator. Either 300 μM L-ArgSp or vehicle (SF medium) was added to the culture medium pre-, during and post-NMDA exposure. Throughout the duration of the experiment, 5 μg/ml PI was included in the medium. After 24 hours, neuronal damage was determined by PI fluorescence imaging and quantified as described previously.
compound,measurement,setting,value
"N=C(N)NCCCC(N)C(=O)NCCCNCCCCN [Compound A, N′-L-Arginylspermidine]","damage produced by NMDA (PI fluorescence, in words)",10 μM NMDA for 180 minutes,did not reduce the damage
same,"damage produced by NMDA (PI fluorescence, in words)",30 μM NMDA for 180 minutes,did not reduce the damage
